# Measured values published in the SangsterLogP compilation.
# Assay: method code SF-AS, from DOI: 10.1021/jf00106a008
# Details: pH 7.3
row,logD,Compound
1,0.3,CCCOn1c(=O)cc(C)[nH]c1=O
2,1.73,CCCOn1c(=O)[nH]c(CCC)c(Br)c1=O
3,0.76,CCCOn1c(=O)[nH]c(C)c(Br)c1=O
4,-0.1,C#CCOn1c(=O)[nH]c(C)c(Br)c1=O
5,0.11,CCOn1c(=O)[nH]c(C)c(Br)c1=O
6,3.38,CCCCCCCCOn1c(=O)[nH]c(C)c(Br)c1=O
7,4.65,CCCCCCCCCCOn1c(=O)[nH]c(C)c(Br)c1=O
8,1.26,CCCCOn1c(=O)[nH]c(C)c(Br)c1=O
9,1.23,Cc1[nH]c(=O)n(OCC(C)C)c(=O)c1Br
10,1.11,CCC(C)On1c(=O)[nH]c(C)c(Br)c1=O (stereo not drawn)
11,-0.22,CCCOn1c(=O)[nH]c(C)c(SC#N)c1=O
12,0.45,Cc1[nH]c(=O)n(OC(C)C)c(=O)c1Br
13,-0.3,COn1c(=O)[nH]c(C)c(Br)c1=O
14,0.32,C=CCOn1c(=O)[nH]c(C)c(Br)c1=O
15,1.69,CCCCCOn1c(=O)[nH]c(C)c(Br)c1=O
16,0.3,Cc1[nH]c(=O)n(OCCCl)c(=O)c1Br
17,2.48,CCCCCCOn1c(=O)[nH]c(C)c(Br)c1=O
18,0.72,CCCOn1c(=O)c(Br)c(C)n(C)c1=O
